This is an account of results in EP0745595A1, “3-(3-Aryloxyphenyl)-1-(substituted methyl)-s-triazine-2,4,6-oxo or thiotrione herbicidal agents” (American Cyanamid Company, priority 1995, dated 1996).

Holding throughout (type): in vivo
The subject of data set [1] is CYPERUS SEROTINUS, ROTTB. Kind of data set: Preemergence weed control under flooded paddy conditions, CYPSE (Flatsedge). Conditions: 0.500 kg/ha, preemergence, 3-4 weeks after treatment. An outline of the steps:
(§1)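 Visual 0-9 rating against untreated control, covering stand, vigor, malformation, size and chlorosis, scored three to four weeks post-treatment in a greenhouse. Application was into 1.5-3 cm flood water over silt loam sown at 0.5 cm. The 50/50 v/v aqueous/acetone doses were about 0.5, 0.25, 0.125 and 0.063 kg/ha.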

The test system of data set [2] is CYPERUS IRIA. Kind of data set: Preemergence weed control under flooded paddy conditions, CYPIR (Rice Flatsedge). Conditions: 0.500 kg/ha, preemergence, 3-4 weeks after treatment. As for the experimental part: (§2) Results of herbicide evaluation are expressed on a rating scale (0-9). The scale is based upon a visual observation of plant stand, vigor, malformation, size, chlorosis and overall plant appearance as compared with a control.
(§3) Preemergence herbicidal activity under flooded paddy conditions is determined as follows: plant seeds or propagating organs are planted in the top 0.5 cm of silt loam soil in 32 oz. plastic containers with a diameter of 10.5 cm and no drainage holes. Water is added to these containers and maintained at 1.5 to 3 cm above the soil surface for the duration of the experiment. […] The treated containers are placed on greenhouse benches and cared for according to normal greenhouse procedures.- Three to four weeks after treatment the test is terminated and each container is examined and herbicidal effect rated according to the rating system provided in Example 40. The compounds evaluated are reported by compound number given in Example 40.
(§4) Plant species employed in this example are reported by header abbreviation, common name and scientific name.

For data set [3], the system named is SAGITTARIA PYGMAEA, L. Briefly: Preemergence weed control under flooded paddy conditions, SAGPY (Arrowhead (Pygmaea)). Conditions: 0.500 kg/ha, preemergence, 3-4 weeks after treatment. An outline of the steps: as §1
Data set [4] deals with ECHINOCHLOA ORYZOIDES (ARD.)FRITSCH. Kind of data set: Preemergence weed control under flooded paddy conditions, ECHORC (Watergrass (Calif.)). Conditions: 0.500 kg/ha, preemergence, 3-4 weeks after treatment. As for the experimental part:
as §2, §3, §4

The subject of data set [5] is ORYZA SATIVA, L. TEBONNET
Kind of data set: Rice tolerance to post-transplant applications under flooded paddy conditions, ORYSAT (Rice, Tebonnet). Conditions: 0.500 kg/ha, post-transplant rice, 3-4 weeks after treatment. An outline of the steps:
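Rated on a visual 0–9 scale against untreated plants 3–4 weeks after application, rice (cv. Tebonnet) tolerance was tested by applying compounds (approx. 0.5–0.063 kg/ha, acetone/water 50/50) to flooded soil three days post-transplant, water kept 1.5–3 cm deep.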

The subject of data set [6] is ORYZA SATIVA, L. TEBONNET
Briefly: Postemergence herbicidal evaluation, ORYSAT (Rice, Tebonnet). Details: key: 0-9 visual rating scale vs untreated control. As to the method: (§5) In the tests, seedling plants are grown in jiffy flats for about two weeks. The test compounds are dispersed in 50/50 acetone/water mixtures containing 0.5% TWEEN®20, a polyoxyethylene sorbitan monolaurate surfactant of Atlas Chemical Industries, in sufficient quantities to provide the equivalent of about 0.125 kg to 0.500 kg per hectare of active compound when applied to the plants through a spray nozzle operating at 40 psi for a predetermined time. After spraying, the plants are placed on greenhouse benches and are cared for in the usual manner, commensurate with conventional greenhouse practices. From four to five weeks after treatment, the seedling plants are examined and rated according to the rating system set forth below. Where more than one test is involved for a given compound, the data are averaged.
(§6) Plant species employed in these evaluations are reported by header abbreviation, common name and scientific name.
as §2

The test system of data set [7] is […], PRESL. Kind of data set: Preemergence weed control under flooded paddy conditions, MOOVA (Monochoria). Conditions: 0.500 kg/ha, preemergence, 3-4 weeks after treatment. An outline of the steps: as §1
Data set [8] concerns IPOMOEA SPP. Briefly: Postemergence herbicidal evaluation, IPOSS (Morningglory spp.). An outline of the steps: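 In this greenhouse postemergence herbicide test on Ipomoea spp. (morningglory), compounds in 50/50 acetone/water with 0.5% TWEEN®20 were sprayed at 40 psi onto seedlings about two weeks old grown in jiffy flats. After four to five weeks, injury was scored on a 0-9 scale covering stand, vigor, malformation, size, chlorosis and overall appearance versus control, with repeat tests averaged.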

The test system of data set [9] is ABUTILON THEOPHRASTI, MEDIC. Briefly: Postemergence herbicidal evaluation, ABUTH (Velvetleaf). An outline of the steps:
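This postemergence herbicide test used two-week-old velvetleaf seedlings grown in jiffy flats. Each compound was sprayed at 40 psi as a dispersion in 50/50 acetone/water with 0.5% TWEEN®20 surfactant. Plants then received routine greenhouse care. After four to five weeks, injury was scored visually on a 0-9 scale against a control, and replicate tests were averaged.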

Data set [10] relates to GLYCINE MAX(L) MERR. CV. WILLIAMS
Kind of data set: Postemergence herbicidal evaluation, GLXMAW (Soybean, Williams). The arrangement: key to GLXMAW rating / Herbicidal effect rating, GLXMAW / GLXMAW: 0-9 visual rating scale vs untreated control. As to the method:
as §5, §6, §2

Data set [11] deals with CHENOPODIUM ALBUM, L. Briefly: Postemergence herbicidal evaluation, CHEAL (Lambsquarters, Common). An outline of the steps:
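Postemergence herbicidal activity on Chenopodium album was tested by spraying two-week-old seedlings grown in jiffy flats with compound in acetone/water (50/50) plus 0.5% TWEEN®20, using a 40 psi nozzle. Four to five weeks after treatment, stand, vigor, malformation, size, chlorosis and overall appearance were scored 0-9 relative to controls, with repeat tests averaged.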

For data set [12], the system named is GALIUM APARINE. Kind of data set: Postemergence herbicidal evaluation, GALAP (Galium). The arrangement: key to GALAP rating / Herbicidal effect rating, GALAP / GALAP: 0-9 visual rating scale vs untreated control. An outline of the steps: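 In this postemergence greenhouse test, two-week-old Galium aparine seedlings grown in jiffy flats received a 40 psi spray of compound in acetone/water (50/50) with 0.5% TWEEN®20 surfactant. After four to five weeks, stand, vigor, malformation, size, chlorosis and overall appearance were compared with untreated controls on a 0-9 scale, averaging multiple tests.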

The test system of data set [13] is AMBROSIA ARTEMISIIFOLIA, L. Kind of data set: Postemergence herbicidal evaluation, AMBEL (Ragweed, Common). An outline of the steps:
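Postemergence herbicidal activity on AMBEL (common ragweed) was assessed on two-week-old seedlings grown in jiffy flats. Treatment solutions of 50/50 acetone/water with 0.5% TWEEN®20 surfactant were sprayed at 40 psi. After four to five weeks in the greenhouse, plants were scored 0-9 against a control for stand, vigor, malformation, size, chlorosis and overall appearance, with multiple tests averaged.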

In data set [14] the test system is SETARIA VIRIDIS, (L) BEAU. Kind of data set: Postemergence herbicidal evaluation, SETVI (Foxtail, Green). The arrangement: key to SETVI rating / Herbicidal effect rating, SETVI / SETVI: 0-9 visual rating scale vs untreated control. As for the experimental part: as §5, §6, §2
Data set [15] deals with ECHINOCHLOA CRUS-GALLI, (L) BEAU. Kind of data set: Postemergence herbicidal evaluation, ECHCG (Barnyardgrass). Details: key to ECHCG rating / Herbicidal effect rating, ECHCG / ECHCG: 0-9 visual rating scale vs untreated control. As for the experimental part:
as §5, §6, §2

For data set [16], the system named is CASSIA OBTUSIFOLIA, L. Briefly: Postemergence herbicidal evaluation, CASOB (Sicklepod). Details: key to CASOB rating / Herbicidal effect rating, CASOB / CASOB: 0-9 visual rating scale vs untreated control. An outline of the steps: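 Postemergence foliar spray at approximately 0.125–0.500 kg/ha onto two-week seedlings; greenhouse hold, then 0–9 visual injury rating after 4–5 weeks.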

The subject of data set [17] is ECHINOCHLOA CRUS-GALLI, (L) BEAU. Kind of data set: Preemergence herbicidal evaluation, ECHCG (Barnyardgrass). Conditions: rated four to five weeks after treatment.
Text: as §2
(§7) The preemergence herbicidal activity of the test compounds of the present invention is exemplified by the following tests in which the seeds of a variety of monocotyledonous and dicotyledonous plants are separately mixed with potting soil and planted on top of approximately one inch of soil in separate pint cups. […] The treated cups are then placed on greenhouse benches, watered and cared for in accordance with conventional greenhouse procedures. From four to five weeks after treatment, the tests are terminated and each cup is examined and rated according to the rating system provided in Example 40.
(§8) The compounds evaluated are reported by compound number given in Example 40.

Data set [18] deals with GLYCINE MAX(L) MERR. CV. WILLIAMS
Briefly: Preemergence herbicidal evaluation, GLXMAW (Soybean, Williams). Conditions: rated four to five weeks after treatment.
Text: as §2, §7, §8

Turning to `COC(=O)Cn1c(=O)n(C)c(=O)n(-c2cc(Oc3cc(F)c(F)cc3F)ccc2[N+](=O)[O-])c1=O` [Compound 30], the “Herbicidal effect rating, CYPSE” value in data set [1] came to 0.0. In addition, in [2], the “Herbicidal effect rating, CYPIR” value stood at 0.0. Moreover, the “Herbicidal effect rating, SAGPY” value in data set [3] was 0.0. For the same compound, the “Herbicidal effect rating, ECHORC” value in data set [4] was 0.0. In addition, the “Herbicidal effect rating, ORYSAT” value in data set [5] was 1.0. Besides, the ORYSAT rating in data set [6] (Rate 0.125 kg/ha), in [6] (Rate 0.250 kg/ha) and in data set [6] (Rate 0.500 kg/ha) was 3.0 each time. In addition, in [7], the “Herbicidal effect rating, MOOVA” value is given as 0.0.
As to `COC(=O)Cn1c(=O)n(C)c(=O)n(-c2cc(Oc3cc(Cl)cc(Cl)c3Cl)ccc2[N+](=O)[O-])c1=O` [Compound 25, Methyl 3-[2-nitro-5-(2,3,5-trichloro-phenoxy)phenyl]tetrahydro-5-methyl-2,4,6-trioxo-s-triazine-1(2H)-acetate], in data set [1], the “Herbicidal effect rating, CYPSE” value is listed as 0.0. Besides, in data set [2], the “Herbicidal effect rating, CYPIR” value stood at 0.0. The IPOSS rating in data set [8] (Rate 0.125 kg/ha), in data set [8] (Rate 0.250 kg/ha) and in data set [8] (Rate 0.500 kg/ha) was 0.0 each time. For the same compound, the ABUTH rating in data set [9] (Rate 0.125 kg/ha), in data set [9] (Rate 0.250 kg/ha) and in data set [9] (Rate 0.500 kg/ha) was 0.0 in each case. In addition, the GLXMAW rating in data set [10] (Rate 0.125 kg/ha), in data set [10] (Rate 0.250 kg/ha) and in data set [10] (Rate 0.500 kg/ha) was 0.0 in each case. In data set [3], the “Herbicidal effect rating, SAGPY” value was determined as 0.0. The CHEAL rating in data set [11] (Rate 0.125 kg/ha), in data set [11] (Rate 0.250 kg/ha) and in data set [11] (Rate 0.500 kg/ha) was 0.0 in each case. Besides, the GALAP rating in [12] (Rate 0.125 kg/ha), in data set [12] (Rate 0.250 kg/ha) and in [12] (Rate 0.500 kg/ha) was 0.0 each time. The “Herbicidal effect rating, ECHORC” value in data set [4] is reported as 0.0. For the same compound, the AMBEL rating in [13] (Rate 0.125 kg/ha), in [13] (Rate 0.250 kg/ha) and in [13] (Rate 0.500 kg/ha) was 0.0 in each case. Also, in data set [5], the “Herbicidal effect rating, ORYSAT” value came to 0.0. In addition, the SETVI rating in [14] (Rate 0.125 kg/ha), in data set [14] (Rate 0.250 kg/ha) and in data set [14] (Rate 0.500 kg/ha) was 0.0 each time. Also, the ECHCG rating in [15] (Rate 0.125 kg/ha), in [15] (Rate 0.250 kg/ha) and in data set [15] (Rate 0.500 kg/ha) was 0.0 in each case. Besides, in [7], the “Herbicidal effect rating, MOOVA” value stood at 0.0. The CASOB rating in data set [16] (Rate 0.125 kg/ha), in data set [16] (Rate 0.250 kg/ha) and in data set [16] (Rate 0.500 kg/ha) was 0.0 each time.
For the compound `COC(=O)Cn1c(=O)n(C)c(=O)n(-c2cc(Oc3cc(OC)c(Cl)cc3Cl)ccc2[N+](=O)[O-])c1=O` [Compound 29, Methyl 3-[5-(2,4-dichloro-5-methoxyphenoxy)-2-nitrophenyl]tetrahydro-5-methyl-2,4,6-trioxo-s-triazine-1(2H)-acetate], the ECHCG herbicidal rating in data set [17] (Rate 0.125 kg/ha), in data set [17] (Rate 0.250 kg/ha) and in [17] (Rate 0.500 kg/ha) was 0.0 throughout. In addition, the “Herbicidal effect rating, CYPSE” value in [1] is 0.0. In addition, the “Herbicidal effect rating, CYPIR” value in data set [2] amounted to 0.0. Besides, the “Herbicidal effect rating, SAGPY” value in data set [3] is recorded as 0.0. Further, the “Herbicidal effect rating, ECHORC” value in data set [4] is 0.0. Further, in [5], the “Herbicidal effect rating, ORYSAT” value amounted to 0.0. The GLXMAW herbicidal rating in data set [18] (Rate 0.125 kg/ha), in data set [18] (Rate 0.250 kg/ha) and in data set [18] (Rate 0.500 kg/ha) was 0.0 each time. Also, the “Herbicidal effect rating, MOOVA” value in [7] is 0.0.
